Data taken from US20080299140A1, “Immunogenic Composition and Peptide Sequences for Prevention and Treatment of an Hsv Condition” (priority 2002, published 2008).
Where two headings read alike, the source gives them in different places.

Columns and labels:
[1] = test system: HLA-DR and HLA-DP molecules; assay: MHC class II binding assays, panel of twelve HLA class II molecules (number of alleles bound); conditions: number of the twelve class II MHC alleles bound; title: Threshold 600 nM/5 alleles
[2] = molecular target: T1, DR1=HLA-DR(α1*0101,α1*0101) (Homo sapiens, UniProt P01903+P01911, A100R/D57E/F55L/F60I/F76Y/I96L/L162R/M171V/P40L/Q125E/R42F/V115G/Y59C); assay: biochemical; format: binding; conditions: […]
T1 construct: endogenous in cells; host or cells: EBV homozygous human B cell line

[3] = molecular target: T2, DR3=HLA-DR(α1*0101,α1*0301) (Homo sapiens, UniProt P01903+P01911, A100K/A102G/A103R/A169T/F55Y/I96L/K41T/L162R/M171V/P40S/Q125H/Q178H/Q39Y/R42S/S66N/T106N/T262R/W38E/Y61H); assay: HLA-DR specific binding assay, DR3
T2 construct: endogenous in cells; host or cells: STEILIN (EBV homozygous B cell line)

[4] = molecular target: T3, DP402 DP (α1*0101, α1*0402) (Homo sapiens, UniProt P04440+P20036, A65V/A84D/A85E/L207M); assay: biochemical; format: binding
T3 sequence (P20036 29-260): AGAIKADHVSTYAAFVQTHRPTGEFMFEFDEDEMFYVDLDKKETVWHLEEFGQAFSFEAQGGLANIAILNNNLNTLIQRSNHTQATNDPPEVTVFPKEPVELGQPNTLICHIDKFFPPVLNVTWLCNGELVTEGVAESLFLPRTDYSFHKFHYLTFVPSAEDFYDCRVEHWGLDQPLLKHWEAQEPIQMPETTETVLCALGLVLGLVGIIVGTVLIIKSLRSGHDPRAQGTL
T3 sequence (P04440 30-258 A65V/A84D/A85E): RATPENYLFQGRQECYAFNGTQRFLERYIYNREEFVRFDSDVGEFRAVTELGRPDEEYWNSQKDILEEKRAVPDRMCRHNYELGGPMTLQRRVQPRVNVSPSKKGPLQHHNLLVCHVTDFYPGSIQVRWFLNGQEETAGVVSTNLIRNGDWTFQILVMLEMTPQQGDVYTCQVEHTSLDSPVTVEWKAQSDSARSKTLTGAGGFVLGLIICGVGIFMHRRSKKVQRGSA

[5] = test system: lymphocytes obtained from HSV-1 infected H-2^d mice; assay: HSV-primed T-cell responses to gD peptides in HSV-1 infected mice; format: cell-based; conditions: HSV-1 infected H-2^d mice
Protocol: Twelve days after the second immunization, spleen and inguinal lymph nodes (LN) were removed and placed into ice-cold serum free HL-1 medium supplemented with 15 mM HEPES, 5×10^−5 M β-mercaptoethanol, 2 mM glutamine, 50 U of penicillin and 50 μg of streptomycin (GIBCO-BRL, Grand Island, N.Y.) (complete medium, CM). The cells were cultured in 96-well plates at 5×10^5 cells/well in CM, with recall or control peptide at 30, 10, 3, 1, or 0.3 μg/ml concentration, as previously described in (BenMohamed et al., 2000 and 2002). The cell suspensions were incubated for 72 h at 37° C. in 5% CO2. One μCi (micro-curie) of (^3H)-thymidine (Dupont MEN, Boston, Mass.) was added to each well during the last 16 h of culture. The incorporated radioactivity was determined by harvesting cells onto glass fiber filters and counted on a Matrix 96 direct ionization-counter (Packard Instruments, Meriden, Conn.). Results were expressed as the mean cpm of cell-associated (^3H)-thymidine recovered from wells containing Ag minus the mean cpm of cell-associated (^3H)-thymidine recovered from wells without Ag (A cpm) (average of triplicate). The Stimulation Index (SI) was calculated as the mean cpm of cell-associated (^3H)-thymidine recovered from wells containing Ag divided by the mean cpm of cell-associated (^3H)-thymidine recovered from wells without Ag (average of triplicate). For all experiments the irrelevant control peptide gB141-165 and the T-cell mitogen Concanavalin A (ConA) (Sigma, St. Louis, Mo.) were used as negative and positive controls, respectively. Proliferation results were confirmed by repeating each experiment twice. A T-cell proliferative response was considered positive when A cpm>1000 and SI>2.
To define the fine specificity of broadly reactive T-cells associated with viral immunity and to explore immunodominance in the context of HSV infection, proliferation of lymphocytes obtained from twenty HSV-1 infected H-2^d mice were evaluated using the twelve gD peptides as Ag (FIG. 6). […] Despite a difference between individual mice, a unique array of T-cell responses was identified for each of the twenty infected mice analyzed.

[6] = molecular target: T4, DR11=HLA-DR(α1*0101,α1*1101) (Homo sapiens, UniProt P01903+P01911, A100R/A169T/A87E/I96F/K41T/L162R/M171V/P40S/Q125H/Q178H/Q39Y/Q99D/R42S/S66Y/T262R/V115G/W38E); assay: biochemical; format: binding
T4 construct: endogenous in cells; host or cells: SWEIG (EBV homozygous B cell line)

[7] = molecular target: T5, DR15=HLA-DR(α1*0101,α1*1501) (Homo sapiens, UniProt P01903+P01911); assay: HLA-DR specific binding assay, DR15
T5 construct: endogenous in cells; host or cells: EBV homozygous human B cell line

[8] = molecular target: T6, DRB4=HLA-DR(α1*0101,α4*0101) (Homo sapiens, UniProt P01903+P13762, G164S); assay: HLA-DR specific binding assay, DRB4 (DR53)
T6 construct: endogenous in cells

[9] = molecular target: T7, DR4=HLA-DR(α1*0101,α1*0401) (Homo sapiens, UniProt P01903+P01911, A100K/A169T/F76Y/I96L/K127E/L162R/M171V/N62H/P40V/Q125Y/R42H/S133A/S149N/S66Y/V115G/V209L/W38E); assay: biochemical; format: binding
T7 construct: endogenous in cells; host or cells: BOLETH (EBV homozygous B cell line)

[10] = molecular target: T8, DR13=HLA-DR(α1*0101,α1*1301) (Homo sapiens, UniProt P01903+P01911, A100E/A169T/K41T/L162R/M171V/P40S/Q125H/Q178H/Q39Y/Q99D/R42S/S66N/T262R/W38E/Y61H); assay: HLA-DR specific binding assay, DR13
T8 construct: endogenous in cells; host or cells: 0206AD (EBV homozygous B cell line)

CC[C@H](C)[C@H](NC(=O)[C@@H]1CCCN1C(=O)[C@H](CS)NC(=O)[C@H](C)NC(=O)CNC(=O)[C@H](CC(C)C)NC(=O)[C@H](CO)NC(=O)[C@H](CCCCN)NC(=O)[C@@H](N)CC(N)=O)C(=O)N[C@@H](CCCNC(=N)N)C(=O)N[C@H](C(=O)N[C@@H](CCC(N)=O)C(=O)N1CCC[C@H]1C(=O)N[C@@H](CCCNC(=N)N)C(=O)N[C@@H](Cc1c[nH]c2ccccc12)C(=O)N[C@@H](CC(N)=O)C(=O)N[C@@H](Cc1ccc(O)cc1)C(=O)N[C@@H](Cc1ccc(O)cc1)C(=O)N[C@@H](CC(=O)O)C(=O)N[C@@H](CO)C(=O)N[C@@H](Cc1ccccc1)C(=O)N[C@@H](CO)C(=O)N[C@@H](C)C(=O)N[C@H](C(=O)N[C@@H](CO)C(=O)N[C@@H](CCC(=O)O)C(=O)N[C@@H](CC(=O)O)C(=O)N[C@@H](CC(N)=O)C(=O)N[C@@H](CC(C)C)C(=O)NCC(=O)N[C@@H](Cc1ccccc1)C(=O)N[C@@H](CC(C)C)C(=O)O)C(C)C)[C@@H](C)O [HSV 33]
Range [1]: 12
IC50 ([2]; Table V, read-out: IC50 DR1): 53 nM
IC50 ([2]; Class II MHC allele DR1, read-out: IC50, DR1): 53 nM
IC50 ([3]; IC50, DR3, Class II MHC allele DR3): 66 nM
IC50 ([3]; IC50 DR3, Table V, […]): 66 nM
IC50 ([4]; Class II MHC allele DP402): 65 nM
IC50 ([4]; Table V, […]): 65 nM
immunodominance of epitopes in HSV-primed T-cell responses [5]: subdominant epitopes
IC50 ([6]; Class II MHC allele DR11, read-out: IC50, DR11): 289 nM
IC50 ([6]; Table V, […], read-out: IC50 DR11): 289 nM
IC50 [7]: 2 nM
IC50 [8]: 319 nM
IC50 ([9]; Class II MHC allele DR4, read-out: IC50, DR4): 6 nM
IC50 ([9]; Table V, […], read-out: IC50 DR4): 8 nM
IC50 [10]: 160 nM
